{
  "source": "paper PMC6500982",
  "about": "(Cancer Science, 2019)",
  "origin": "cited, not measured here",
  "test_system": "ABC DLBCL tumors",
  "conditions": "cited from earlier work",
  "note": "Like-named read-outs stand apart in the source and are kept apart here.",
  "data": [
    {"smiles": "C=CC(=O)N1CCC[C@@H](n2nc(-c3ccc(Oc4ccccc4)cc3)c3c(N)ncnc32)C1", "note": "[ibrutinib]", "values": [
      {"measurement": "Patients who responded to treatment", "setting": "ABC tumors with B‐cell receptor mutations who also had MYD88 mutations", "value": 80, "unit": "%"},
      {"measurement": "Patients who responded to treatment", "setting": "ABC tumors with B‐cell receptor mutations", "value": 55.5, "unit": "%"}
    ]}
  ]
}
